What was measured:
U87 cells = assay: Comparison of peptide variants by crystal violet staining and light microscopy
Source text: The sizes of the resulting in silico peptides varied from 10 to 30 amino acids. In order to facilitate their cellular internalisation, a TAT-HIV sequence was attached to the C-terminal ends. All peptides were […]. The peptide library was produced by Cambridge Peptides (Cambridge, UK). The peptides were then screened with the MTT (3-(4,5-dimethylthiazol-2-yl)-2,5-diphenyltetrazolium bromide) assay on U87 human glioma cells. Cellular morphology after peptide exposure was assessed by crystal violet staining and light microscopy. All experiments were performed in triplicate.
To increase the stability of the peptide, two further sub-formulations of the original formula (L-aa, containing only L-amino acids) were created: D-aa (retro inversed, (ri)), a peptide comprised of a backward sequence of the original in silico formula, yet made up solely of D-amino acids and an analogue peptide to original in silico peptide formula, comprised of D-amino acids. D-amino acids are highly resistant to protease mediated degradation and have a low immunogenic response. The respective peptide variants were tested in the following concentrations: 7.5, 10, 15, 20 and 25 µg/ml and incubated for 3 hours.

[1] = test system: HFF1 normal human foreskin fibroblasts; assay: MTT viability assay; assay type: cell-based; settings: 20 µg Cypep-1/ml, 60 min incubation
Method: (§1) Cypep-1 was tested in various concentrations on a total of 17 cell lines, which included 13 human and 1 murine tumour cell line(s), as well as 3 normal human cell lines. Listed in detail: 4 human osteosarcoma (U2OS, SaOS2, HOS and MNNG-HOS), 6 human glioblastoma (A172, GaMg, LN18, U87, U373 and T98G) and 3 human mammary carcinoma cell lines (MCF7, AU565 and MDA-MB-468) as well as an additional murine mammary carcinoma cell line (4T1). Furthermore, 3 normal human cell lines were included: 2 normal human fibroblast cell lines (HFF1 and 142Br) as well as normal human osteoblasts (HOB).
(§2) All normal human cell lines were purchased from Promo Cell (Heidelberg, Germany). While the normal human foreskin fibroblasts (HFF1) were grown in DMEM medium as described above, the additional human skin fibroblast cell line (142Br) and the normal human osteoblasts (HOB) were cultured in purchased cell type specific growth mediums (Promo Cell, Heidelberg, Germany).
(§3) MTT proliferation assays were performed on all cell lines (with the exception of 142Br (human skin fibroblasts)), using monolayers of 15 000 cells in sterile 96 well tissue culture plates (Nunc™, Roskilde, Denmark), respectively. […]

[2] = test system: HOB normal human osteoblasts; assay: MTT viability assay; assay type: cell-based; settings: 20 µg Cypep-1/ml, 60 min incubation
Method: as §1, §2, §3

[3] = test system: osteosarcoma cell lines (U2OS, SaOs2); assay: LIVE/DEAD Viability/Cytotoxicity assay; assay type: cell-based, human; settings: morphometric evaluation (Calcein), 35 µg Cypep-1/ml, 3 hours
Method: (§4) In order to visualise and quantify the cytotoxic action of Cypep-1 simultaneously, the LIVE/DEAD® Viability/Cytotoxicity Kit was employed according to the manufacturers instructions on monolayers of 30 000 cells in sterile 24 multi well dishes (Nunc™, Roskilde, Denmark), using the selected human osteosarcoma cell lines U2OS and SaOs2 as well as the two human fibroblast cell lines HFF1 (foreskin) and 142Br (skin).
(§5) The monolayer cultures were incubated with Cypep-1 for a period of 3 hours in concentrations ranging from 2.5 µg to 35 µg/ml. The cells were observed using an inverted fluorescence microscope (Nikon Eclipse 2000E, Tokyo, Japan) equipped with FITC (green fluorescence) and TRITC (red fluorescence) filter optics. The fluorescent cells were then photographed at a 10x magnification. The proportions of viable cells (live cells showing green fluorescence due to the presence of Calcein) and dead cells (red fluorescent due to the membrane penetration of Ethidium-Homodimer-1) were quantified using a Lucia G Morphometry System, Version 4.71 (Laboratory Imaging, Prague, Czech Republic).

[4] = test system: 142Br normal human skin fibroblasts; assay: LIVE/DEAD Viability/Cytotoxicity assay; assay type: cell-based; settings: morphometric evaluation (Calcein), 35 µg Cypep-1/ml, 3 hours
Method: as §4, §5

[5] = test system: HFF1 normal human foreskin fibroblasts; assay: LIVE/DEAD Viability/Cytotoxicity assay; assay type: cell-based; settings: morphometric evaluation (Calcein), 35 µg Cypep-1/ml, 3 hours
Method: as §4, §5

[6] = test system: 4T1 murine mammary carcinoma cells; assay: Time-lapse confocal microscopy; assay type: cell-based; settings: 20 µg Cypep-1/ml for 3 hours; strongest effect between 40 and 55 min
Method: 30.000 cells of the murine mammary carcinoma cell line 4T1 were seeded into a sterile 24 well dish (Nunc™, Roskilde, Denmark). After 24 hours, the monolayer culture was treated with 20µg Cypep-1/ml, followed by immediate observation of the cells at 37°C and 5% CO2 for a period of 3 hours by means of time-lapse confocal microscopy, using a Zeiss LSM510 Meta System (Carl Zeiss AG, Jena, Germany), equipped with both bright field optics and red fluorescence optics at 595nm. The same experiment was repeated as described above with 4T1 cells that had previously been stably transfected with red fluorescent protein, using a dsRed-expressing lentiviral vector pWPXL-dsRED as previously described by Niclou et al..

[7] = test system: 4T1 murine mammary carcinoma allografts; assay: Treatment of subcutaneous 4T1 murine breast cancer allografts; assay type: in vivo, BALB/c mice
Method: 10^6 4T1 murine metastatic breast cancer cells were grafted subcutaneously under Isofluran anaesthesia into the right upper quadrant of the back of 20 female BALB/c mice (average age 126,25 days; average weight 23.8g). At day 12, when the tumours of both groups had reached a tumour volume of 0.12cm^3 in average, 10 female mice (average weight 23.9 g) received a single intra-tumoural injection of 1200 µg of Cypep-1 dissolved in 300 µl 0.9% NaCl, whereas an equal injection volume of 0.9% NaCl was administered to the 10 animals of the control group (average weight 23.7 g). All injections were performed under isofluoran gas anaesthesia. The animals were then observed for signs of distress as described above. 24 hours after the injections, two animals (one assigned to the control and one of the treatment group) were sacrificed for histological analysis. The harvested tumours were immediately fixed in 4% buffered formaldehyde and embedded in paraffin, cut into 5 µm sections and stained with H&E.
In the remaining 18 experimental animals, the tumour size was measured at regular intervals (every 4th day) until day 24 post tumour grafting. All mice were monitored daily for signs of distress and pain. Those that became sick were euthanized humanely. All animal procedures described were in accordance with protocols approved by The National Animal Research Authority (Oslo, Norway).

YGRKKRRQRRRGKTLRVAKAIYKRYIE [Cypep-1]
cytotoxic effect / potency by crystal violet staining (U87 cells; U87 cells, 7.5, 10, 15, 20 and 25 µg/ml, 3 hours incubation): more potent than the parent L- amino acid formula | monolayer appearance by light microscopy (U87 cells; U87 monolayer, 15 µg/ml, 3 hours exposure): extensive cell loss | survival rate [1]: 66% | survival rate [2]: 44% | average surviving fraction [3]: lower than 5% | viability [4]: 81% | viability [5]: 64% | membrane disruption by time-lapse confocal microscopy [6]: extensive loss of cell content into the medium | histological analysis of tumours ([7]; 24 hours after intra-tumoural administration of 1200 µg, H&E): extensive areas of necrosis | average tumour volume at day 24 ([7]; single intra-tumoural injection of 1200 µg at day 12, control 3.5 cm^3, P<0.0001): 1.1 cm^3 | median survival ([7]; single intra-tumoural injection of 1200 µg at day 12, control 20 days, P<0.0011): 32 days | signs of discomfort, pain or toxicity after intratumoural injection ([7]; single intra-tumoural injection of 1200 µg in 300µl 0.9% NaCl, BALB/c mice): None of the animals showed any signs of discomfort, pain or toxicity

From publication PMC4104761, “Identification of a novel lytic peptide for the treatment of solid tumours” (Genes & Cancer, 2014)
